Measured values: patent US6326395A, “Antifungal activity of dicationic molecules” (priority 1999, dated 2001)
Where a name gives a salt, the structure may show the parent alone.

Experiments:
Test in all cases: antifungal susceptibility testing (MIC, MFC), extended spectrum
[1] = tested on: C. tropicalis 110.96; format: cell-based; settings: Candida tropicalis
Excerpt: (§1) Antifungal susceptibility testing for compounds set forth in Examples 1-20 is discussed hereinbelow. The fungi that were employed included two reference strains, C. neoformans var. neoformans H99 and C. albicans A39 and the following clinical isolates: (1) two strains of fluconazole-resistant C. neoformans var. neoformans (135.95 and 114.96); (2) two strains of C. neoformans var. gattii (119.95 and 114.95); (3) two strains of fluconazole-resistant C. albicans (102.96 and 103.96); and (4) one strain each of Torulopsis glabrata (142.91), Candida parapsilosis (111.96), Candida krusei (132.91), C. tropicalis (110.96), Candida lusitaniae (111.92), Fusarium solani (152.89), Aspergillus fumigatus (168.95), and Aspergillus flavus (112.96). Antifungal susceptibility testing was performed using an RPMI-1640 medium (Sigma Chemical Co., St. Louis, Mo.) with glutamine, without sodium bicarbonate, and buffered at pH 7.0 with 0.165 M morpholine-propanesulfonic acid (MOPS).
(§2) In vitro susceptibility testing in the form of Minimum Inhibitory Concentration (MIC) experiments were performed using the broth macrodilution method according to the recommendations of the National Committee for Clinical Laboratory Standards (see 1995 manual). The only difference compared to the standardized procedure was the choice of drug dilutions ranging from 100 to 0.09 μg/ml. Briefly, this procedure specifies an inoculum grown at 35° C. and adjusted to a concentration of 0.5-2.5×10^3 CFU/ml with an incubation of the test performed at 35° C. and reading at 48 hours for all yeasts except for C. neoformans which is interpreted at 72 hr.
(§3) Minimum Fungicidal Concentration (MFC) experiments were adapted from a method by McGinnis (McGinnis, M. R., (1980) "Susceptibility testing and bioassay procedure", p. 431, Academic Press, Inc., New York). Briefly, 10 μl aliquots from tubes with growth inhibition were plated onto Sabouraud agar plates. The lowest drug concentration that yielded three or fewer yeasts colonies was recorded as the MFC.
(§4) Antifungal susceptibility testing for compounds set forth in Examples 21-28 is discussed hereinbelow. […]
(§5) Minimum Fungicidal Concentration (MFC) experiments were adapted from a method by McGinnis (McGinnis, M. R., (1980) "Susceptibility testing and bioassay procedure", p.431, Academic Press, Inc., New York). […] The lowest drug concentration that yielded 3 or fewer yeasts colonies was recorded as the MFC. […]

[2] = tested on: Torulopsis glabrata 142.91; format: cell-based; settings: Nakaseomyces glabratus
Excerpt: as §1, §2, §3, §4, §5

[3] = tested on: C. neoformans 114.96; format: cell-based, C. neoformans var. neoformans; settings: Cryptococcus neoformans, C. neoformans 114.96, fluconazole-resistant
Excerpt: as §1
as §2, with “The only difference compared to the standardized procedure was the choice of drug dilutions ranging from 100 to 0.09 μg/ml.” left out
as §5, with “p. 431,” for “p.431,”, “three” for “3”
as §5

[4] = tested on: C. lusitaniae 111.92; format: cell-based, Candida lusitaniae; settings: Clavispora lusitaniae
Description: (§6) Antifungal susceptibility testing for compounds set forth in Examples 1-20 is discussed hereinbelow. […]
as §2, with “The only difference compared to the standardized procedure was the choice of drug dilutions ranging from 100 to 0.09 μg/ml.” left out
as §5, with “p. 431,” for “p.431,”, “three” for “3”
as §5

[5] = tested on: Cryptococcus neoformans H99; format: cell-based, C. neoformans var. neoformans; settings: Cryptococcus neoformans H99
Excerpt: as §1
as §2, with “The only difference compared to the standardized procedure was the choice of drug dilutions ranging from 100 to 0.09 μg/ml.” left out
as §5, with “p. 431,” for “p.431,”, “three” for “3”
as §5

[6] = tested on: C. parapsilosis 111.96; format: cell-based, Candida parapsilosis; settings: Lodderomyces parapsilosis
Description: as §6
as §2, with “The only difference compared to the standardized procedure was the choice of drug dilutions ranging from 100 to 0.09 μg/ml.” left out
as §5, with “p. 431,” for “p.431,”, “three” for “3”
as §5

[7] = tested on: Candida albicans A39; format: cell-based; settings: Candida albicans A39
Excerpt: as §1, §2, §3, §4, §5

[8] = tested on: C. albicans 102.96; format: cell-based, Candida albicans; settings: Candida albicans, C. albicans 102.96, fluconazole-resistant
Excerpt: as §1, §2, §3
(§7) Antifungal susceptibility testing for compounds set forth in Examples 21-28 is discussed hereinbelow. The fungi that were employed included two quality control reference strains, C. neoformans var. neoformansH99 and C. albicans A39 and the following clinical isolates: (1) four strains of C. neoformans var. neoformans (167.95; 135.95; 114.96; and 133.95) of which three were fluconazole-resistant>64 μg/ml (135.95; 114.96; and 133.95); (2) two strains of C. neoformans var. gattii (119.95 and 114.95); (3) two strains of fluconazole-resistant>64 μg/ml C. albicans (102.96 and 103.96); and (4) one strain each of C. glabrata (142.91), Candida parapsilosis (111.96), Candida krusei (132.91), C. tropicalis (110.96), Candida lusitaniae (111.92), Fusarium solani (152.89), Aspergillus fumigatus (168.95), Rhizopus arrhizus (117.89), Paecilomyces lilacinus (137.90), and Aspergillus flavus (112.96). Antifungal susceptibility testing was performed using an RPMI-1640 medium (Sigma Chemical Co., St. Louis, Mo.) with glutamine, without sodium bicarbonate, and buffered at pH 7.0 with 0.165 M morpholinepropanesulfonic acid (MOPS).
as §3, with “p.431,” for “p. 431,”, “3” for “three”, “MFC. Several drugs were also rescreened with a subculture of 100 μl aliquots from tubes with no growth and there was no change in MFC.” for “MFC.”

[9] = tested on: C. albicans 103.96; format: cell-based, Candida albicans; settings: Candida albicans, C. albicans 103.96, fluconazole-resistant
Excerpt: as §1, §2, §3, §7
as §3, with “p.431,” for “p. 431,”, “3” for “three”, “MFC. Several drugs were also rescreened with a subculture of 100 μl aliquots from tubes with no growth and there was no change in MFC.” for “MFC.”

MIC ([1]; 48 hours, read-out: MIC80): 0.78 µg/mL
MIC ([2]; 48 hours, read-out: MIC80): 0.78 µg/mL
MIC ([3]; 72 hr, read-out: MIC80): 0.78 µg/mL
MIC ([4]; 48 hours, read-out: MIC80): 0.78 µg/mL
MIC ([5]; 72 hr, read-out: MIC80): 0.78 µg/mL
MIC ([6]; 48 hours, read-out: MIC80): 0.78 µg/mL
MIC ([7]; 48 hours, read-out: MIC80): 0.78 µg/mL
MIC ([8]; 48 hours, read-out: MIC80): 1.56 µg/mL
MIC ([9]; 48 hours, read-out: MIC80): 1.56 µg/mL
Structure (SMILES): CC(C)NC(=N)c1ccc2nc(-c3ccc4c(c3)Cc3cc(-c5nc6ccc(C(=N)NC(C)C)cc6[nH]5)ccc3-4)[nH]c2c1 [Compound 57, 2,7-Bis[2-(5-N-isopropylamidino)benzimidazoyl]fluorene hydrochloride]
MFC [1]: 1.56 µg/mL
MFC [2]: 0.78 µg/mL
MFC [3]: 0.78 µg/mL
MFC [4]: 3.12 µg/mL
MFC [5]: 0.78 µg/mL
MFC [6]: 0.78 µg/mL
MFC [7]: 1.56 µg/mL
MFC [8]: 12.5 µg/mL
MFC [9]: 12.5 µg/mL
